Source: publication PMC12689952 (Frontiers in Pharmacology, 2025)
Like-named read-outs stand apart in the source and are kept apart here.

Key:
[1] = tested on: Sprague Dawley rats; test: Forced swimming test (FST) after intranasal administration; type: in vivo, rat; settings: for Climbing / Immobility / Swimming: mean ± SEM
Experimental: (§1) Male Sprague Dawley rats (body weight 200–225 g) were obtained from Charles River (Barcelona, Spain) and maintained in a humidity-controlled and temperature-controlled (20 °C–22 °C) room. Rats were maintained during the alcohol protocol on a 12-h reversed light/dark cycle (lights off at 9 a.m.). All animal experimentation was conducted in accordance with the University of Málaga Guidelines for the Care and Use of Laboratory Animals (Ethic Code: 22/05/2017/066).
(§2) Animals were preacclimated to the procedure and handled daily for 3 days to reduce stress. Rats were administered under light anaesthesia with isoflurane (3%–4% for induction and 1.5%–2% for maintenance) for approximately 2–3 min, sufficient to prevent movement during intranasal administration. A single intranasal infusion of GAL (1–15) (TOCRIS, Bristol, United Kingdom, molecular weight = 1557 g/mol) was administered at doses of 37.5 μg, 75 μg, 150 μg, or 300 μg, equivalent to those used with other peptides ([Serova et al., 2013]; [Serova et al., 2019]). Doses were dissolved in 20 μL of distilled water, with 10 μL administered into each nostril using a disposable plastic-tipped pipette, without inserting deeply, 30 min or 1 h before behavioral testing, as described previously ([Serova et al., 2013]; [Serova et al., 2019]). Care was taken to avoid contact with the intranasal mucosa. After intranasal administration, the animal’s head was held back for approximately 15 s to prevent loss of solution from the nostrils. Animals returned to normal behavior within 1–2 min, and no subjects needed to be withdrawn due to intolerance.
Depressive behavior was assessed using the FST, as described previously ([Millón et al., 2014]; [Cantero-García et al., 2022b]). Briefly, two swimming sessions were conducted: a 15-min pretest followed 24 h later by a 5-min test. Animals were individually placed in a vertical glass cylinder of 20 cm diameter containing water (25 °C) to a height of 30 cm. Immobility, swimming and climbing behaviors were evaluated and recorded during the second 5-min test. Behavioral scoring was conducted by a blinded experimenter using coded videos to ensure objectivity.
Two experiments were conducted in the FST (Figure 1A). A dose-response curve of GAL (1–15) was performed in the first set of experiments. For this, groups of rats received GAL (1–15) intranasally 37.5 μg (n = 6), 75 μg (n = 6), 150 μg (n = 6) or 300 μg (n = 6) or distilled water (n = 12) 30 min before the test. The effects in the FST of GAL (1–15) intranasally at 1 h were studied in the second set of experiments. For this, groups of rats received GAL (1–15) intranasal 37.5 μg (n = 8), 75 μg (n = 8) or distilled water (n = 4–5) 1 h before the test. Animals were randomly assigned to treatment groups.

[2] = tested on: Sprague Dawley rats; test: Operant alcohol self-administration test after intranasal administration; type: in vivo, rat; settings: 75 μg intranasal, 1 h before test
Experimental: as §1, §2
Training and testing were conducted in standard operant chambers (Panlab, Barcelona, Spain). Each chamber (250 mm W × 250 mm D × 250 mm H) was equipped with a drinking reservoir positioned 4 cm above the grid floor in the center of the front panel of the chamber, and two retractable levers were located 3 cm to right an left of the dinking receptacle. Each reservoir was calibrated to dispense 0.1 mL when the fixed ratio of lever presses was obtained. Chambers were connected to a computer running Packwin Sofware (2.0, Panlab, Barcelona, Spain).
Alcohol consumption was assessed using the previous self-administration test ([Cantero-García et al., 2022a]; [Cantero-García et al., 2022b]; [Lebourgeois et al., 2018]) (Figure 1B). Briefly, rats were exposed to intermittent consumption of 0.2% saccharin and 10% alcohol for 3 weeks. After that, rats were placed on a water restriction schedule for 2–4 days to facilitate training in lever pressing. […]

[3] = target: hERG potassium channel (Homo sapiens, UniProt Q12809); test: hERG inhibition, FluxOR potassium assay in hERG-expressing HEK293 cells
Experimental: Cardiotoxicity of GAL (1–15) was assessed in hERG-expressing HEK cells using the FluxOR™ potassium assay (Invitrogen) on a FLIPR TETRA system. Cells were preloaded with FluxOR™ dye, followed by incubation with GAL (1–15) in a 10-point half-log dose-response curve (max concentration: 50 µM). After a 30-min equilibration, the thallium stimulation buffer was injected to measure potassium flux kinetics. […] Data were analyzed using Genedata Screener software, with IC50 values determined via the Hill model ([Annang et al., 2021]; [Lee et al., 2019]).

[4] = tested on: CHO cells; settings: 24 h
Experimental: The study followed OECD Test Guideline 487 for micronucleus assessment in rodent CHO cells (ECACC ref: 85050302). Cells were seeded at 2,000/well in 96-well plates and incubated at 37 °C with 5% CO2. GAL (1–15) (2.52 mM stock) was tested at concentrations ranging from 3.12 to 50 μM for 24 h in six replicates. […] After treatment, cytochalasin B was added for 28 h to block cytokinesis, followed by fixation and Hoechst staining. Imaging was performed using the Operetta CLS High-Content Analysis System, and analysis was conducted with Harmony software and the in-house NucleusFinder App (ImageJ-based). NucleusFinder identified valid micronuclei under stringent criteria, excluding irregular structures ([Durcik et al., 2023]). The cytokinesis-block proliferation index (CBPI) was calculated to assess cytostatic effects, ensuring cytostasis remained below 60% to avoid secondary micronuclei induction due to cytotoxicity. Cytostasis was calculated as follows: %cytostasis = 100–100 [(CBPIT-1)/(CBPIC-1)] where T is the test compound treatment culture, C is the vehicle control culture, and CBPI = {(No. mononucleate cells) + (2 × No. binucleate cells) + (3 × No. multinucleate cells)}/(total number of cells).

[5] = target: T1, CYP3A4 (Homo sapiens, UniProt P08684); test: Cytochrome P450 inhibition assay in human liver microsomes (testosterone substrate); type: in vitro ADME
T1 construct: Following the addition of human liver microsomes (HLM) and specific substrates; from tissue; host or cells: human liver microsomes
Experimental: (§3) The Cytochrome P450 (CYP450) inhibition assay was performed to assess GAL (1–15) using substrates specific for the CYP3A4, CYP2D6, and CYP2C9 isoforms. […] Following the addition of human liver microsomes (HLM) and specific substrates (testosterone for CYP3A4, dextromethorphan for CYP2D6, diclofenac for CYP2C9), reactions were incubated with shaking at 180 Hz (CYP3A4: 15 min; CYP2D6: 30 min; CYP2C9: 45 min). […] Reactions were quenched with acetonitrile, centrifuged, and analyzed using LC-MS/MS with a triple quadrupole mass spectrometer (AB SCIEX API4000) coupled to an Agilent 1290 HPLC system ([Fowler et al., 2022]). Data were processed using Genedata Screener software to calculate IC50 values.

[6] = target: CYP2D6 (Homo sapiens, UniProt P10635); test: Cytochrome P450 inhibition assay in human liver microsomes (dextromethorphan substrate)
Experimental: as §3

[7] = target: CYP2C9 (Homo sapiens, UniProt P11712); test: Cytochrome P450 inhibition assay in human liver microsomes (diclofenac substrate)
Experimental: as §3

[8] = tested on: rats; design: method as in Millón, 2014; settings: 3 nmol intracerebroventricular; ref Millón, 2014; cited from earlier work
[9] = tested on: rats; design: method as in Cantero-García et al., 2022a; settings: 3 nmol intracerebroventricular; ref Cantero-García et al., 2022a; cited from earlier work
[10] = tested on: rats; design: method as in Millón et al., 2019b; settings: voluntary intake model; ref Millón et al., 2019b; cited from earlier work
[11] = 37.5 μg intranasal, 1 h before test
[12] = 75 μg intranasal, 1 h before test, p < 0.05 vs control
[13] = 150 μg intranasal, 30 min before test, p < 0.05
[14] = 300 μg intranasal, 30 min before test, p < 0.05

Sequence of CYP2D6 (P10635 whole entry): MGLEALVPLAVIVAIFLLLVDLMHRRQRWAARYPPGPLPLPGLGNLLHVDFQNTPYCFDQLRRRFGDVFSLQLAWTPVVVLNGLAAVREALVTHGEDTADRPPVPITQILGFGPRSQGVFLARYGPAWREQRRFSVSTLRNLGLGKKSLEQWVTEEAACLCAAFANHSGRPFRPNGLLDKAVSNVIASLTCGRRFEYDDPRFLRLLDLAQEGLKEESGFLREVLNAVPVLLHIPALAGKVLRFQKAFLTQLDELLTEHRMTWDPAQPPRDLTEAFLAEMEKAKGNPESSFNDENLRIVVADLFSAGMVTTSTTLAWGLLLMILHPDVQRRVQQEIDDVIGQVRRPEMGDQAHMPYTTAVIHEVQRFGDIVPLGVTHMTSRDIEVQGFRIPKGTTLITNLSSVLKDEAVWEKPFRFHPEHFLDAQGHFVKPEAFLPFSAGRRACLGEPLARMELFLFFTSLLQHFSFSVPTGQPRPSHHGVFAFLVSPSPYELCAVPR
Sequence of CYP2C9 (P11712 whole entry): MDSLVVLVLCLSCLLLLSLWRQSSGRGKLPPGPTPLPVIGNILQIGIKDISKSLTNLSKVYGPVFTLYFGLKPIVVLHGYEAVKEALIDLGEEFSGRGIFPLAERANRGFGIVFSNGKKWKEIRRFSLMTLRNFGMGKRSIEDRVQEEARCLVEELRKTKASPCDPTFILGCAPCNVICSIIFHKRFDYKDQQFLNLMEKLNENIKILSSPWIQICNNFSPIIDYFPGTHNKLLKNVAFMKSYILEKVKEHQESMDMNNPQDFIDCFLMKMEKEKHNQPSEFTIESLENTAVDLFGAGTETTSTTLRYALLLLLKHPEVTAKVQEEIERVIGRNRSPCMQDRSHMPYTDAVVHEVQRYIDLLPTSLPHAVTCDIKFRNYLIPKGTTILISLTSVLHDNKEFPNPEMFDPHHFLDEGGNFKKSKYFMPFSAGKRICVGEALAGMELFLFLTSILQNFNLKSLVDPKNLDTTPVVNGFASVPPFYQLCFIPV
T1 sequence (P08684 whole entry): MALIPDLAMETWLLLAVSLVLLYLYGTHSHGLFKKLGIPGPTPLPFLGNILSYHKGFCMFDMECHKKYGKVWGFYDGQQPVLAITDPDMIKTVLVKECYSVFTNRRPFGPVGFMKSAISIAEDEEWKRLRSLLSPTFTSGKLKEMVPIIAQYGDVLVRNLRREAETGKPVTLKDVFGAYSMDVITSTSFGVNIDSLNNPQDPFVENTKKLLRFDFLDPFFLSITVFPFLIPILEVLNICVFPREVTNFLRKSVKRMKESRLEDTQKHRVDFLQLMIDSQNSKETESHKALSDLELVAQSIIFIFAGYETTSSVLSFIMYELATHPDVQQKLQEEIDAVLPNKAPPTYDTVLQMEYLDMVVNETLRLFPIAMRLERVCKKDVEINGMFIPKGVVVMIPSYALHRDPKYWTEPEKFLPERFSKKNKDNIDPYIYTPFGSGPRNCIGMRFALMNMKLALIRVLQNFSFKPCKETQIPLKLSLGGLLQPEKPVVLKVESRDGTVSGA
Sequence of hERG potassium channel (Q12809 whole entry): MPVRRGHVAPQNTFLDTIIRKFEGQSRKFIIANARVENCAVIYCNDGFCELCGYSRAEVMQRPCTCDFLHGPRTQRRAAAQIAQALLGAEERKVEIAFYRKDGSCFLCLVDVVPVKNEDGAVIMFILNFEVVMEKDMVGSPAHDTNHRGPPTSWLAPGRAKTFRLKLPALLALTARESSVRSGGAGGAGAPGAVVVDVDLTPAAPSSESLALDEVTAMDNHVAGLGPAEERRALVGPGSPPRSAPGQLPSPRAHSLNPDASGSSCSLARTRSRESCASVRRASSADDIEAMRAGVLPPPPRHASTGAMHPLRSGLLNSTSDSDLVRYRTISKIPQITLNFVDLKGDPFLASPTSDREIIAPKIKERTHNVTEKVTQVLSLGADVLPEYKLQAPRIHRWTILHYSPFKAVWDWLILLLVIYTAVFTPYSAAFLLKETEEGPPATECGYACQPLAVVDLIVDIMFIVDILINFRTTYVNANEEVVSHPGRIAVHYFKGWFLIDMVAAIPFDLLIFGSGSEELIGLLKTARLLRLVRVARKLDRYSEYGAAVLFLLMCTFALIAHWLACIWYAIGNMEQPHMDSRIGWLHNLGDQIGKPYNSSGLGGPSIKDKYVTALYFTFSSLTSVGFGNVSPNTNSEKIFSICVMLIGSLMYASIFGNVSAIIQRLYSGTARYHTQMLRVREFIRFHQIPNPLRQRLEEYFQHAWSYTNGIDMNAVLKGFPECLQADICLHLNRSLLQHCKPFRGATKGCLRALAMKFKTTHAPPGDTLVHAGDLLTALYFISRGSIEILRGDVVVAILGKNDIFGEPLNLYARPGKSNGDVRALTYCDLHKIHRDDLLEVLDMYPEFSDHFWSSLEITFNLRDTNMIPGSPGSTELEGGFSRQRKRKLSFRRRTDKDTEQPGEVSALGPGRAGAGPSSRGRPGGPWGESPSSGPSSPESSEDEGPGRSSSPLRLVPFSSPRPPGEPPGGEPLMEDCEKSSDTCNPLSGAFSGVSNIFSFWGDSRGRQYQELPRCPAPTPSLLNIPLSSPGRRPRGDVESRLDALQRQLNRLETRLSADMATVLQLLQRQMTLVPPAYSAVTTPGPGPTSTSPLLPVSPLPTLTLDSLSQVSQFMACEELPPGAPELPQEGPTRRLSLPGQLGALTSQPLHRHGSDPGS

Compound: CC(C)C[C@H](NC(=O)[C@H](CC(C)C)NC(=O)[C@H](Cc1ccc(O)cc1)NC(=O)CNC(=O)[C@H](C)NC(=O)[C@H](CO)NC(=O)[C@H](CC(N)=O)NC(=O)[C@H](CC(C)C)NC(=O)[C@@H](NC(=O)[C@H](Cc1c[nH]c2ccccc12)NC(=O)CN)[C@@H](C)O)C(=O)NCC(=O)N1CCC[C@H]1C(=O)N[C@@H](Cc1cnc[nH]1)C(=O)N[C@@H](C)C(=O)O [GAL (1–15), Galanin (1–15)]
- Behavioral effects in the FST ([1]; 37.5 μg intranasal, 30 min before test): did not produce significant behavioral effects
- Immobility, swimming, or climbing behaviors in FST vs control [1, 11]: no significant alterations
- Climbing [1, 11]: 109.6 ± 16.26 s
- Immobility [1, 11]: 59.10 ± 23.04 s
- Swimming [1, 11]: 97.75 ± 16.01 s
- Immobility time in FST vs control ([1]; 75 μg intranasal, 30 min before test, p < 0.001): significant increase in immobility time
- Swimming time in FST vs control ([1]; 75 μg intranasal, 30 min before test, p < 0.01): significantly decreased swimming time
- Swimming ([1]; 75 μg intranasal, 1 h before test): 104.9 ± 15.86 s
- Climbing [1, 12]: 62.96 ± 6.47 s
- Immobility [1, 12]: 98.57 ± 18.74 s
- Immobility time in FST vs control ([1]; 75 μg intranasal, 1 h before test, p < 0.05): increasing immobility time
- Climbing time in FST vs control ([1]; 75 μg intranasal, 1 h before test, p ≤ 0.05): reducing climbing time
- Immobility in FST vs control [1, 13]: significant increase in immobility
- Swimming time in FST vs control [1, 13]: reduction in swimming time
- Immobility in FST vs control [1, 14]: significant increase in immobility
- Swimming time in FST vs control [1, 14]: reduction in swimming time
- Climbing time in FST ([1]; any of the tested doses (37.5-300 μg) intranasal, 30 min before test): No effects were observed
- Total number of inactive lever presses vs control [2]: did not significantly differ
- Active lever presses vs control ([2]; 30-min session, p < 0.01): significantly reduced
- Number of alcohol reinforcements vs control ([2]; 30-min session, p < 0.01): marked decrease
- Inactive lever presses ([2]; mean ± SEM): 0.2 ± 0.1
- IC50 ([3]; Cardiotoxicity classification from hERG IC50, FluxOR potassium assay, HEK293-hERG): > 10 µM
- IC50 ([3]; hERG IC50, HEK293 cells stably expressing hERG, FluxOR potassium assay, n = 3): 20.9 µM
- % Cytostasis ([4]; 3.125 µM): 0%
- % MN ([4]; 3.125 µM): 8.39%
- No. binucleate cells ([4]; 3.125 µM): 3,324
- No. of binucleated cells with MN ([4]; 3.125 µM): 278
- % Cytostasis ([4]; 6.25 µM): 0%
- % MN ([4]; 6.25 µM): 8.28%
- No. binucleate cells ([4]; 6.25 µM): 3,210
- No. of binucleated cells with MN ([4]; 6.25 µM): 265
- % Cytostasis ([4]; 12.5 µM): 0%
- % MN ([4]; 12.5 µM): 8.53%
- No. binucleate cells ([4]; 12.5 µM): 3,209
- No. of binucleated cells with MN ([4]; 12.5 µM): 273
- % Cytostasis ([4]; 25 µM): 0%
- % MN ([4]; 25 µM): 8.70%
- No. binucleate cells ([4]; 25 µM): 3,135
- No. of binucleated cells with MN ([4]; 25 µM): 272
- % Cytostasis ([4]; 50 µM): 0.1%
- % MN ([4]; 50 µM): 7.94%
- No. binucleate cells ([4]; 50 µM): 3,108
- No. of binucleated cells with MN ([4]; 50 µM): 246
- Micronucleus formation ([4]; any tested concentration, highest 50 μM): did not induce micronucleus formation
- CYP3A4 inhibitory potency class [5]: weak (weak inhibitors (IC50 > 10 μM))
- IC50 at 15 min ([5]; pH 7.4, testosterone substrate, N = 3, read-out: CYP3A4 IC50 [lower and upper 95%]): > 23 µM
- IC50 ([5]; testosterone substrate, N = 3, read-out: CYP3A4 IC50 [lower and upper 95%]): > 26 µM
- IC50 [6]: > 26 µM
- CYP2D6 inhibitory potency class ([6]; human liver microsomes): weak (weak inhibitors (IC50 > 10 μM))
- IC50 at 30 min ([6]; human, microsomes, pH 7.4): > 23 µM
- IC50 [7]: > 26 µM
- CYP2C9 inhibitory potency class ([7]; human liver microsomes): weak (weak inhibitors (IC50 > 10 μM))
- IC50 at 45 min ([7]; human, microsomes, pH 7.4): > 23 µM
- Decrease in climbing behavior in FST [8]: 46%
- Increase in immobility in FST [8]: 44%
- Number of alcohol reinforcements [9]: significantly reduced
- Decrease in alcohol preference and consumption [10]: 90%
